According to patent US11161855B2, “Tricyclic fused thiophene derivatives as JAK inhibitors” (Incyte Corporation, priority 2012, dated 2021):

Assays:
Type in all cases: biochemical
[1] = target: human JAK2 (a.a. 828-1132) (Homo sapiens (Human), UniProt O60674); experiment: In vitro JAK kinase assay (HTRF), JAK2; set-up: key to JAK2 IC50 (nM): + indicates an IC50 of ≤100 nM; ++ indicates an IC50 of ≤1000 nM; +++ indicates an IC50 of ≤2000 nM; ++++ indicates an IC50 of >2000 nM; +++++ indicates that the IC50 was greater than the highest concentration tested; details: 1 mM ATP
human JAK2 (a.a. 828-1132), sequence (O60674 828-1132): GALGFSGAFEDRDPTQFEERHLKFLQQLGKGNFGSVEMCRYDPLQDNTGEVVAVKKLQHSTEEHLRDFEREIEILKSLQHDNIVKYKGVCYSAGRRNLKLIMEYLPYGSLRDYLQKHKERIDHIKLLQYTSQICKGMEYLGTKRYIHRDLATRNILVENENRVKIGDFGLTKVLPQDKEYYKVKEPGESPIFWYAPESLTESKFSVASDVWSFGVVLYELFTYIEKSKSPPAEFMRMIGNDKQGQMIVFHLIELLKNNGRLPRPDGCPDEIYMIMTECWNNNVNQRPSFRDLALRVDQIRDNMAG
Experimental: Compounds herein were tested for inhibitory activity of JAK targets according to the following in vitro assay described in Park et al., Analytical Biochemistry 1999, 269, 94-104. The catalytic domains of human JAK1 (a.a. 837-1142), JAK2 (a.a. 828-1132) and JAK3 (a.a. 781-1124) were expressed using baculovirus in insect cells and purified. The catalytic activity of JAK1, JAK2 or JAK3 was assayed by measuring the phosphorylation of a biotinylated peptide. The phosphorylated peptide was detected by homogenous time resolved fluorescence (HTRF). IC50s of compounds were measured for each kinase in the 40 μL reactions that contain the enzyme, ATP and 500 nM peptide in 50 mM Tris (pH 7.8) buffer with 100 mM NaCl, 5 mM DTT, and 0.1 mg/mL (0.01%) BSA. For the 1 mM IC50 measurements, ATP concentration in the reactions was 1 mM. Reactions were carried out at room temperature for 1 hour and then stopped with 20 μL 45 mM EDTA, 300 nM SA-APC, 6 nM Eu-Py20 in assay buffer (Perkin Elmer, Boston, Mass.). Binding to the Europium labeled antibody took place for 40 minutes and HTRF signal was measured on a PHERA star plate reader (BMG, Cary, N.C.). The Example compounds were each tested in the Example A assay (see Table 1 for data for the compounds of the examples as tested by the assay of Example A at 1 mM ATP).

[2] = target: human JAK1 (a.a. 837-1142) (Homo sapiens, UniProt P23458); experiment: In vitro JAK kinase assay (HTRF), JAK1; details: 1 mM ATP
In short: (§1)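 Baculovirus-expressed catalytic domains (JAK1 a.a. 837-1142, JAK2 a.a. 828-1132) phosphorylate 500 nM biotinylated peptide at 1 mM ATP, Tris pH 7.8, 1 h at room temperature. EDTA stop and HTRF detection with Eu-Py20/SA-APC; IC50 values derived.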

[3] = test system: human JAK1 (a.a. 837-1142); experiment: In vitro JAK kinase assay (HTRF), JAK1; details: ratio of IC50s, 1 mM ATP
In short: as §1

SMILES	JAK2 IC50 (nM) [1]	IC50 [2] [nM]	JAK2/JAK1 [3]	IC50 [1] [nM]
C[C@@H](O)c1nc2cnc3ccsc3c2n1[C@H]1CC[C@H](CC#N)[C@@H](O)C1 (single isomer, unassigned) [37 (first peak)]	+++++	≤ 1000	>10	
C[C@@H](O)c1nc2cnc3ccsc3c2n1[C@@H]1CC[C@@H](CC#N)[C@H](O)C1 (single isomer, unassigned) [37 (second peak)]		≤ 100	>10	≤ 1000
CCc1nc2cnc3ccsc3c2n1[C@H]1CC[C@H](CC#N)[C@@H](O)C1 (single isomer, unassigned) [40 (first peak)]		≤ 100	>10	≤ 1000
